Experimental findings from publication PMC12143348, “Rapid and reversible fluorescent probe enables repeated snapshot imaging of AMPA receptors during synaptic plasticity” (Science Advances, 2025) are described below.

One experiment addresses T1, GluA2flip(R) + GSG1L (Mus musculus, UniProt P23819, DEL765-802/Q607R).
T1 construct: expressed in transfected cells; host or cells: HEK293T
The experiment is described as follows: Concentration-dependent binding of PFQX1(AF488) to GluA2flip(R) expressed with GSG1L in HEK293T cells. To be noted: n = 3–4, read-out: Kd / Affinity of PFQX1(AF488) to GluA2flip(R) with GSG1L. As for the experimental part: HEK293T cells were cotransfected with plasmids for AMPAR [5′UTR-GluA1^flip(R)-3′UTR, GluA2^flip(Q)-3′UTR, GluA3^flip(Q) (Y454A/R461G), and GluA4^flip(Q)], kainate receptor [GluK2(Q)], auxiliary subunits, or the control vector and transfection marker (EFGP-F or mCherry-F). Fluorophore-ligand conjugates were diluted in Hepes-buffered saline (HBS) buffer [20 mM Hepes (pH 7.4), 107 mM NaCl, 6 mM KCl, 1.2 mM MgSO4, 2 mM CaCl2, and 11.5 mM glucose] and added to the cells. Confocal live imaging was performed with LSM900 (Carl Zeiss) equipped with a 63×, numerical aperture (NA) = 1.4 oil-immersion objective. Fluorescence images were acquired by excitation at 405, 488, 561, or 640 nm derived from diode lasers.
For evaluating the concentration dependency of fluorophore-ligand conjugates, 0.1 nM probe in HBS was added to the dish. Then, probes in HBS were added stepwise to the dish to a final concentration of 0.3, 1, 3, 10, 30, 100, 300, 1000, and 3000 nM. Cell surface fluorescence intensity was quantified from the line scans of transfection marker positive cells and calculated with subtraction of background by ZEN blue software (Carl Zeiss). […]
(A) Concentration-dependent binding of PFQX1(AF488) to GluA2 flip(R) expressed with GSG1L or TARP γ7. […] (B) The surface intensity of PFQX1(AF488) was quantified. […]

For a further experiment, the system named is native AMPARs. The experiment can be described thus: Concentration-dependent binding of PFQX1(AF488) to AMPARs in primary cultured hippocampal neurons. Set-up: species or system mouse. The note with it: for Kd: n = 3. The method, then:
We modified the Banker’s culture method of hippocampal neurons ([59]). Glass-bottom dishes (14 mm φ, Matsunami) were coated with poly-D-lysine (Sigma-Aldrich) and washed three times with sterile dH2O. Hippocampi from 16-day-old ICR mouse embryos were aseptically dissected and digested with 0.25% (w/v) trypsin (Nacalai Tesque) for 20 min at 37°C. The cells were resuspended in Neurobasal Plus medium supplemented with 10% FBS, 1 mM GlutaMAX I (Invitrogen), penicillin (100 U/ml), and streptomycin (100 μg/ml) and filtered by Cell Strainer (100 μm, Falcon) followed by centrifugation at 1000 rpm for 5 min. The cells were resuspended in Neurobasal Plus medium supplemented with 2% of B-27 Plus Supplement, 1 mM GlutaMAX I (Invitrogen), penicillin (100 U/ml), and streptomycin (100 μg/ml) and plated at a density of 2 × 10^4 cells on glass-bottom dishes. Precultured cortical astrocytes on glass coverslips (13 mm φ) were transferred to the dishes so that astrocytes were faced to neurons. The cultures were maintained at 37°C in a 95% air and 5% CO2 humidified incubator. The culture medium was replaced every 7 days, and the neurons were used at 16 to 18 days in vitro (DIV).
Calcein Red AM (50 nM; AAT Bioquest) was added to the cultured neurons for 30 min at 37°C to visualize the intracellular region. The cells were washed with Hepes-based ACSF [25 mM Hepes (pH 7.4), 140 mM NaCl, 5 mM KCl, 1.3 mM CaCl2, 2 mM MgCl2, and 33 mM glucose], and 100 nM PFQX1(AF488) in Hepes-based ACSF was added to the dish.
For evaluating the concentration dependency of PFQX1(AF488), the cells were treated with 1 nM PFQX1(AF488). Then, PFQX1(AF488) in Hepes-based ACSF was added stepwise to the dish to a final concentration of 3, 10, 30, 100, 300, and 1000 nM. To quantify the concentration dependency after cLTP, the procedure described above was conducted after cLTP stimulation as described in the section “cLTP and quantification of cell-surface AMPARs.” The average intensity of ROIs set on spines was calculated by ZEN blue software after subtracting background fluorescence. The intensity was fitted with KaleidaGraph to calculate the equilibrium constant value using the following equation: a + (b − a)/(1 + (x/c)^d). The equilibrium constant is regarded as the Kd in this study.

Where two headings read alike, the source gives them in different places.

T1 sequence (P23819 with tags, fused parts or gaps isoform P23819-4 Q607R/DEL765-802): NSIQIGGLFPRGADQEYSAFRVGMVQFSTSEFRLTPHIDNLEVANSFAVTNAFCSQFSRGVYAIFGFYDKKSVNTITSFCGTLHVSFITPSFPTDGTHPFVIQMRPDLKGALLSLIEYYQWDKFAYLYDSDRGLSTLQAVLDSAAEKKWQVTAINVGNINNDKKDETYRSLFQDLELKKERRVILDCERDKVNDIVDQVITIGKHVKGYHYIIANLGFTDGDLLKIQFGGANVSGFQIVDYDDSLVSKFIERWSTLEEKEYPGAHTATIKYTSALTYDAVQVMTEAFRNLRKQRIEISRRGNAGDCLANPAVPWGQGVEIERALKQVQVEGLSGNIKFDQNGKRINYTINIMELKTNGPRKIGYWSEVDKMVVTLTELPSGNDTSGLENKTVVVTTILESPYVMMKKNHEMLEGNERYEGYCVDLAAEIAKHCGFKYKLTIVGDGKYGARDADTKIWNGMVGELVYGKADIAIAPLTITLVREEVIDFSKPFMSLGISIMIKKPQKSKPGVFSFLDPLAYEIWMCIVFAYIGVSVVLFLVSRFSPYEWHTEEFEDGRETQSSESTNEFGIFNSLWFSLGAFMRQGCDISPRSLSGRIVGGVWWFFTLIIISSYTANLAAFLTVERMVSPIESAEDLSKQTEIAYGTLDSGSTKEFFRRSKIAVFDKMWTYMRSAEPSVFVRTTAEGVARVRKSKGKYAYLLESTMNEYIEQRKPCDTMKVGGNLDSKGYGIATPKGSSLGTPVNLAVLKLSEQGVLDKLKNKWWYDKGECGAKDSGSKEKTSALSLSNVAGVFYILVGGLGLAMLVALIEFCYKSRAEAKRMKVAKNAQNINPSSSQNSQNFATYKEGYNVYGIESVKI
T1 sequence (D3Z7H4 whole entry partner): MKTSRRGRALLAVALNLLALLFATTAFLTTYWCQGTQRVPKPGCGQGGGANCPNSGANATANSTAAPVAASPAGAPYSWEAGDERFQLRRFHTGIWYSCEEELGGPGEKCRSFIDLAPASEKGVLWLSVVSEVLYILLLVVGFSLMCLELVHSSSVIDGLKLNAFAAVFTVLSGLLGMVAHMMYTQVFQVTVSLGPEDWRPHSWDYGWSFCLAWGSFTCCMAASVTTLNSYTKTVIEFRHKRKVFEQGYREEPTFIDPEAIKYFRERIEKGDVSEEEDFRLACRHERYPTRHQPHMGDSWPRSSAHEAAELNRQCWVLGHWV

As to `N=c1ccc2c(-c3ccc(C(=O)NCc4ccn(-c5cc6c(cc5C(F)(F)F)[nH]c(=O)c(=O)n6CC(=O)O)c4)cc3C(=O)O)c3ccc(N)c(S(=O)(=O)O)c3oc-2c1S(=O)(=O)O` [PFQX1(AF488)], the Kd at GluA2flip(R) + GSG1L worked out at 34.5 ± 12.4 nM; at native AMPARs (cultured hippocampal neurons after cLTP stimulation, read-out: Kd value after cLTP), 72.4 ± 17.4 nM; at native AMPARs (primary cultured hippocampal neurons, spine fluorescence, read-out: Kd / Affinity to native AMPARs) it was 97.5 ± 9.9 nM. In the experiment on native AMPARs (10 nM probe, from Fig. 4C), the “fraction of AMPARs bound / suppressed by the probe” value is recorded as “less than 10%”.
